In data set [1] the test system is poliovirus type 2. In kind it is cell-based, human poliomyelitisvirus type 2.
Data set [2] has as its system rhinovirus type 1A. The format is cell-based, human rhinovirus type 1A.
Data set [3] deals with poliovirus type 2. In kind it is cell-based.
Data set [4] has as its system rhinovirus type 1A. Kind of data set: Plaque inhibition assay. In kind it is cell-based, Human rhinovirus type 1A.
Data set [5] relates to human HeLa-O cells.
For data set [6], the system named is chymotrypsin. The note with it: inhibitor concentration of 600 µg/mL; cited from earlier work.
Data set [7] has as its system subtilisin BPNʹ. The note with it: series of peptide chloromethyl ketones; cited from earlier work.

Where two headings read alike, the source gives them in different places. Residues, ends and D or L forms follow the SMILES beside them. *: point of attachment. Cbz = O=C(OCc1ccccc1)*; CH2Cl = ClC* A value given as a limit tells only on which side of the number the result lay.

As for `CC(=O)[C@H](CC(C)C)NC(=O)[C@H](C)NC(=O)CNC(=O)[C@H](Cc1ccccc1)NC(=O)OC(C)(C)C` [Boc-Phe-Gly-Ala-LeuCH₃], the “activity in the viral cleavage assay” value in data set [1] and in data set [2] was “failed to show activity” throughout.
With `COC(=O)CCC(=O)N[C@@H](Cc1ccccc1)C(=O)NCC(=O)N[C@@H](CC(C)C)C(=O)N[C@@H](CC(C)C)C(C)=O` [MeOSuc-Phe-Gly-Leu-LeuCH₃], in data set [1] (50 µg/mL), the “activity in the viral cleavage assay” value is “active”.
As to `CC(=O)[C@H](CC(C)C)NC(=O)[C@H](C)NC(=O)CNC(=O)[C@H](Cc1ccccc1)NC(=O)OCc1ccccc1` [Z-Phe-Gly-Ala-LeuCH₃], the plaque reduction in data set [3] was greater than 90%; in data set [4] (50 µg/mL in agar overlays, compared to control plates), greater than 90%. Besides, the “activity in the viral cleavage assay” value in data set [1] (50 µg/mL) is “active”. For the same molecule, the “No cytotoxicity observed at concentrations up to” value in data set [5] is greater than 1 mg/mL.
For the molecule `CC(C)C[C@H](NC(=O)[C@H](CC(C)C)NC(=O)CNC(=O)[C@H](Cc1ccccc1)NC(=O)OCc1ccccc1)C(=O)CCl` [Z-Phe-Gly-Leu-LeuCH₂Cl] (Cbz-FGLL-CH2Cl), the “Antiviral activity, as scored by 90% plaque reduction, noted at” value in data set [4] (HeLa cells) is reported as 1 µg/mL. For the same molecule, the “cytotoxicity first detected at a concentration of” value in data set [5] is listed as “about 15 µg/mL”.
For Ac-Leu-Leu-PheCH₃, the inhibition of chymotrypsin result in data set [6] is “no inhibition was observed”.
As for “acetyl-L-phenylalanyl-L-glycyl-L-alanyl-L-leucyl chloromethyl ketone (Ac-FGAL-CH2Cl; SMILES CC(=O)N[C@@H](Cc1ccccc1)C(=O)NCC(=O)N[C@@H](C)C(=O)N[C@@H](CC(C)C)C(=O)CCl) [Ac-Phe-Gly-Ala-LeuCH₂Cl]”, the “inhibition of subtilisin BPNʹ (rate ranking among the compounds tested)” value in data set [7] was “fastest inhibitor”.

Values taken from patent EP0263903A1, “Method for preparing specific inhibitors of virus-specified proteases” (priority 1986, dated 1988).
